Source: patent publication US6093744A, “N-acyl sulfamic acid esters useful as hypocholesterolemic agents” (Warner-Lambert Company, priority 1998, dated 2000)
Structures can show the parent of a compound that is named as a salt.

Key:
[1] = molecular target: T1, acyl-CoA: cholesterol acyltransferase (ACAT) (Rattus norvegicus, UniProt Q7TQM4); test: In vitro inhibition of acylation of cholesterol by oleic acid (LAI), rat liver microsomes; type: biochemical; details: radiolabeled oleic acid
T1 construct: tissue preparation containing rat liver microsomes; from tissue; host or cells: rat liver microsomes
T1 sequence (Q7TQM4 1-524): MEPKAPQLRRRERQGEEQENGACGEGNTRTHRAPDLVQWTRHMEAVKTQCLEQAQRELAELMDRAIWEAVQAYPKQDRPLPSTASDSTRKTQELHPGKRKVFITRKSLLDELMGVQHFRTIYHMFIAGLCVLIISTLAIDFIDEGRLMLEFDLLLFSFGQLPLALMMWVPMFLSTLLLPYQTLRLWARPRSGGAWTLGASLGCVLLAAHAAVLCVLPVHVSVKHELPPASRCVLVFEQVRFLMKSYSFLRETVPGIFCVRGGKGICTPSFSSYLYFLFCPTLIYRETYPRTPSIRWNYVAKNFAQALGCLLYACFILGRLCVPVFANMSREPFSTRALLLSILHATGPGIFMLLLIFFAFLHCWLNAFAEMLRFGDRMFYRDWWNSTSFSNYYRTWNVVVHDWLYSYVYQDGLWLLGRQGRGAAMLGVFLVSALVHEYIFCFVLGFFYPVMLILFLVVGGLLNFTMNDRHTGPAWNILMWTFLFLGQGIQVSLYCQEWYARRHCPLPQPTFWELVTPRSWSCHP
Experimental: The ability of representative compounds of the present invention to inhibit ACAT was measured using an in vitro test more fully described in Field F J, Salone R G, Biochemica et Biophysica 1982; 712:557-570. The test assesses the ability of a test compound to inhibit the acylation of cholesterol by oleic acid by measuring the amount of radiolabeled cholesterol oleate formed from radiolabeled oleic acid in a tissue preparation containing rat liver microsomes.

Plasma TC = test: in vivo screen designated APCC (high fat, high cholesterol diet, plasma cholesterol); set-up: species or system male Sprague-Dawley rats; details: Rattus norvegicus, rats, PCC diet with 0.5% cholic acid overnight, vehicle CMC/Tween
Description: In one in vivo screen designated APCC, male Sprague-Dawley rats (200 to 225 g) were randomly divided into treatment groups and dosed at 4 PM with either vehicle (CMC/Tween) or suspensions of compounds in vehicle. The normal chow diet was then replaced with a high fat, high cholesterol diet (designated PCC) containing 0.5% cholic acid. The rats consumed this diet ad libitum during the night and were sacrificed at 8 AM to obtain blood samples for cholesterol analysis using standard procedures. Statistical differences between mean cholesterol values for the same vehicle were determined using analysis of variance followed by Fisher's least significant test.

IC50 [1] [µM]	Compound	change in vivo at 10 mg/kg (Plasma TC) [%]	change in vivo at 30 mg/kg (Plasma TC) [%]	change in vivo at 1 mg/kg (Plasma TC; dose 1 mg/kg) [%]
> 50	CC(C)c1cc(C(C)C)c(CC(=O)NS(=O)(=O)Oc2c(C(C)C)cc(OCCCN)cc2C(C)C)c(C(C)C)c1 [Example 16, [(2,4,6-Triisopropyl-phenyl)-acetyl]-sulfamic acid 4-(3-amino-propoxy)-2,6-diisopropyl-phenyl ester hydrochloride salt]	-47	–	–
18	CC(C)c1cc(C(C)C)c(CC(=O)NS(=O)(=O)Oc2c(C(C)C)cc(NC(=O)CNC(=O)OC(C)(C)C)cc2C(C)C)c(C(C)C)c1 [Example 3]	–	-40	–
49	CCOC(=O)CCNC(=O)Nc1cc(C(C)C)c(OS(=O)(=O)NC(=O)Cc2c(C(C)C)cc(C(C)C)cc2C(C)C)c(C(C)C)c1 [Example 7]	–	-30	–
22.8	CC(C)c1cc(C(C)C)c(CC(=O)NS(=O)(=O)Oc2c(C(C)C)cc(CNCc3ccccc3)cc2C(C)C)c(C(C)C)c1 [Example 22, [(2,4,6-Triisopropyl-phenyl)-acetyl]-sulfamic acid 4-(benzylamino-methyl)-2,6-diisopropyl-phenyl ester mono hydrochloride]	-18	–	–
50	CC(C)c1cc(C(C)C)c(CC(=O)NS(=O)(=O)Oc2c(C(C)C)cc(CN3CCN(C)CC3)cc2C(C)C)c(C(C)C)c1 [Example 23, [(2,4,6-Triisopropyl-phenyl)-acetyl]-sulfamic acid 2,6-diisopropyl-4-(4-methyl-piperazin-1-ylmethyl)-phenyl ester, dihydrochloride]	5	–	–
43.8	CC(C)c1cc(C(C)C)c(CC(=O)NS(=O)(=O)Oc2c(C(C)C)cc(C(N)=O)cc2C(C)C)c(C(C)C)c1 [Example 24, [(2,4,6-Triisopropyl-phenyl)-acetyl]-sulfamic acid 4-carbamoyl-2,6-diisopropyl-phenyl ester]	-5	–	–
43.2	CC(C)c1cc(C(C)C)c(CC(=O)NS(=O)(=O)Oc2c(C(C)C)cc(C=O)cc2C(C)C)c(C(C)C)c1 [Example 20, [(2,4,6-Triisopropyl-phenyl)-acetyl]-sulfamic acid 4-formyl-2,6-diisopropyl-phenyl ester]	-44	–	–
> 50	CC(C)c1cc(C(C)C)c(CC(=O)NS(=O)(=O)Oc2c(C(C)C)cc(NC(=O)[C@@H](C)N)cc2C(C)C)c(C(C)C)c1 [Example 11, (D)-[(2,4,6-Triisopropyl-phenyl)-acetyl]-sulfamic acid 4-(2-amino-propionylamino)-2,6-diisopropyl-phenyl ester trifluoroacetate(1:1) (salt)]	-19	–	–

Compound	IC50 [1] [µM]	change in vivo at 10 mg/kg (Plasma TC) [%]	change in vivo at 30 mg/kg (Plasma TC) [%]	change in vivo at 1 mg/kg (Plasma TC; dose 1 mg/kg) [%]
CC(C)c1cc(C(C)C)c(CC(=O)NS(=O)(=O)Oc2c(C(C)C)cc(NC(=O)[C@H](CCCCNC(=O)OC(C)(C)C)NC(=O)OC(C)(C)C)cc2C(C)C)c(C(C)C)c1 [Example 1, (S)-[5-tert-Butoxycarbonylamino-5-(3,5-diisopropyl-4-{[(2,4,6-triisopropyl-phenyl)-acetyl]-sulfamoyloxy}-phenylcarbanoyl)-pentyl]-carbamic acid tert-butyl ester]	23	–	–	7
